This is an account of results in paper PMC6385645 (Chemical Science, 2018).

In experiment [1] the test system is wild type MccB. Put plainly: Competition FP binding assay, wild type MccB, fMccA-FITC probe. More on the design: species or system E. coli. To be noted: even at concentrations greater than 5 mM.
Experiment [2] has as its system MccB. Put plainly: PNP-coupled Michaelis–Menten kinetics of MccB. To be noted: wild-type MccB.
Experiment [3] has as its system YejABEF importer. The note with it: 4 vs the peptide lacking the N-formyl moiety 3; cited from earlier work.

Ends that are not written are not given here. Peptide text beside a SMILES is read from it. * marks the point of attachment. X1 = Nc1ncnc2c1ncn2[C@@H]1O[C@H](COP(=O)(O)NC(=O)[C@H](CC(=O)O)N*)[C@@H](O)[C@H]1O; For = O=C*

MRTGNAN [compound 1]: the “displacement of bound FITC-labeled N-formylated 2” value in experiment [1] is listed as “could not displace”. For the same molecule, in experiment [2], the “substrate inhibition of MccB” value is listed as “but not with the desformyl 1 peptide”.

Consider `CSCC[C@H](NC=O)C(=O)N[C@@H](CCCNC(=N)N)C(=O)N[C@H](C(=O)NCC(=O)N[C@@H](CC(N)=O)C(=O)N[C@@H](C)C(=O)N[C@@H](CC(=O)O)C(=O)NP(=O)(O)OC[C@H]1O[C@@H](n2cnc3c(N)ncnc32)[C@H](O)[C@@H]1O)[C@@H](C)O` [compound 4] (For-MRTGNA-X1), for which the “substrate quality for YejABEF importer” value in experiment [3] is recorded as “significantly better substrate”.
